Test results published in US7655808B2, “Leptomycin compounds” (priority 2004, dated 2010).
Where two headings read alike, the source gives them in different places.

Legend:
A549 = assay: Inhibition of proliferation / cytotoxicity, A549; assay type: cell-based; conditions: A549 human lung cancer cell line; read-out: Tumor Cell Line (IC50, nM) A549
Description: (§1) The biological activity of compounds of this invention was evaluated by measuring their inhibitory effect on the proliferation of various tumor cell lines. MCF-7, A549, and SKOV-3 are human breast, lung, and ovary cancer cell lines, respectively. NCI/ADR is a multi-drug resistant breast cancer cell line. CCRF-CEM and CCRF-CEM/PTX are human leukemia cell lines, the latter being a paclitaxel-resistant subline. LNCaP is a prostate cancer cell line.

CCRF-CEM = assay: Inhibition of proliferation / cytotoxicity, CCRF-CEM; assay type: cell-based; conditions: CCRF-CEM human leukemia cell line; read-out: Tumor Cell Line (IC50, nM) CCRF-CEM
Description: as §1

[1] = Mouse maximum tolerated dose, single dose intravenous; assay type: in vivo; conditions: mice, single dose intravenous administration
Description: The maximum tolerated dose (MTD) in mice, upon single dose intravenous administration was determined for a representative selection of compounds. The data are summarized in Table 4, with comparative data for LMB included.

NCI/ADR = assay: Inhibition of proliferation / cytotoxicity, NCI/ADR; assay type: cell-based; conditions: NCI/ADR multi-drug resistant breast cancer cell line, read-out: Tumor Cell Line (IC50, nM) NCI/ADR
Description: as §1

MCF-7 = assay: Inhibition of proliferation / cytotoxicity, MCF-7; assay type: cell-based; conditions: MCF-7 human breast cancer cell line, read-out: Tumor Cell Line (IC50, nM) MCF-7
Description: as §1

CCRF-CEM/PTX = assay: Inhibition of proliferation / cytotoxicity, CCRF-CEM/PTX; assay type: cell-based; conditions: CCRF-CEM/PTX paclitaxel-resistant human leukemia subline; read-out: Tumor Cell Line (IC50, nM) CCRF-CEM/PTX
Description: as §1

SKOV-3 = assay: Inhibition of proliferation / cytotoxicity, SKOV-3; assay type: cell-based; conditions: SKOV-3 human ovary cancer cell line, read-out: Tumor Cell Line (IC50, nM) SKOV-3
Description: as §1

LNCaP = assay: Inhibition of proliferation / cytotoxicity, LNCaP; assay type: cell-based; conditions: LNCaP prostate cancer cell line, read-out: Tumor Cell Line (IC50, nM) LNCaP
Description: as §1

[2] = Kudo et al., Exp. Cell Res. 1998; cited from earlier work
MB 49 cells = assay: Cytotoxicity against MB 49 murine bladder cancer cells; assay type: cell-based
Excerpt: Table 5 presents data on the cytotoxicity of LMB and selected compounds of this invention against MB 49 cells, a line of murine bladder cancer cells.

K562 cells = assay: Cytotoxicity against Bcr-Abl positive K562 cells; assay type: cell-based; conditions: K562, Bcr-Abl positive CML cell line
Excerpt: Data was also obtained for the cytotoxicity of several compounds of this invention against K562, a Bcr-Abl positive CML cell line, as shown in Table 3 with comparative data for LMB included.

mammalian cells = conditions: Hamamoto et al., J. Antibiotics 1983; cited from earlier work
UMUC-3 = assay: Cytotoxicity against human bladder cancer cells UMUC-3; assay type: cell-based; conditions: UMUC3; UMUC-3 human bladder cancer cells
Description: (§2) Additionally, the cytotoxicity of LMB was determined against two lines of human bladder cancer cells (UMUC-3 and T24).

[3] = phase 1 trial halted in 1994; cited from earlier work
T24 = assay: Cytotoxicity against human bladder cancer cells T24; assay type: cell-based; conditions: T-24
Description: as §2

SMILES	IC50 (A549)	IC50 (CCRF-CEM)	IC50 (NCI/ADR)	IC50 (MCF-7)	IC50 (CCRF-CEM/PTX)	IC50 (SKOV-3)	IC50 (LNCaP)	also measured
CCC(C=CC1OC(=O)C=CC1C)=CC(C)CC=CC(C)=CC(C)C(=O)C(C)C(O)C(C)CC(C)=CC(=O)NC (stereo not drawn) [Compound 1]	0.36 nM	0.69 nM	2.1 nM	0.27 nM	0.46 nM	1.7 nM	0.8 nM	Mouse MTD [1]: 5 mg/kg
CCC(C=CC1OC(=O)C=CC1C)=CC(C)CC=CC(C)=CC(C)C(=O)C(C)C(O)C(C)CC(C)=CC(=O)NCCCCNC(=O)OC(C)(C)C (stereo not drawn) [Compound 14]	1.6 nM	1.7 nM	33 nM	0.3 nM	2.4 nM	2.5 nM	–	–
CCC(=C/[C@H](C)C/C=C/C(C)=C/[C@@H](C)C(=O)[C@@H](C)[C@H](O)[C@@H](C)C/C(C)=C/C(=O)OC)/C=C/[C@@H]1OC(=O)CC(C[N+](=O)[O-])[C@@H]1C (stereo partly drawn) [nitromethyl valerolactone LMB analog]	–	–	–	–	–	–	–	activity of LMB analog [2]: inactive
CCC(C=CC1OC(=O)C=CC1C)=CC(C)CC=CC(C)=CC(C)C(=O)C(C)C(O)C(C)CC(C)=CC(=O)NCCNC (stereo not drawn) [Compound 16]	3.5 nM	1.8 nM	460 nM	3.2 nM	29 nM	9.7 nM	27.2 nM	–
CCC(C=CC1OC(=O)C=CC1C)=CC(C)CC=CC(C)=CC(C)C(=O)C(C)C(O)C(C)CC(C)=CC(=O)NCc1c(C)c(=O)n2c(=O)c(C)c(C)n12 (stereo not drawn) [Compound 18]	4.3 nM	–	380 nM	3.4 nM	–	15 nM	–	–
CCC(C=CC1OC(=O)C=CC1C)=CC(C)CC=CC(C)=CC(C)C(=O)C(C)C(O)C(C)CC(C)=CC(=O)NCC(=O)OC (stereo not drawn) [Compound 10]	1.4 nM	0.63 nM	4.6 nM	0.3 nM	0.5 nM	2.7 nM	0.8 nM	–
CCC(C=CC1OC(=O)C=CC1C)=CC(C)CC=CC(C)=CC(C)C(=O)C(C)C(O)C(C)CC(C)=CC(=O)NCCO (stereo not drawn) [Compound 2]	2.2 nM	2.4 nM	27 nM	0.78 nM	2.8 nM	2.6 nM	–	–
CCC(C=CC1OC(=O)C=CC1C)=CC(C)CC=CC(C)=CC(C)C(=O)C(C)C(O)C(C)CC(C)=CC(=O)NCc1ccc(-c2ccccc2)cc1 (stereo not drawn) [Compound 3]	13 nM	3.5 nM	150 nM	3.7 nM	17 nM	13 nM	–	–
CCC(C=CC1OC(=O)C=CC1C)=CC(C)CC=CC(C)=CC(C)C(=O)C(C)C(O)C(C)CC(C)=CC(=O)NCCNC(C)C (stereo not drawn) [Compound 17]	4.7 nM	–	740 nM	3.5 nM	–	44 nM	–	–
CCC(C=CC1OC(=O)C=CC1C)=CC(C)CC=CC(C)=CC(C)C(=O)C(C)C(O)C(C)CC(C)=CC(=O)Nc1ccc2cn[nH]c2c1 (stereo not drawn) [Compound 5]	3.3 nM	3.1 nM	34 nM	2 nM	9 nM	5.9 nM	–	–
CCC(C=CC1OC(=O)C=CC1C)=CC(C)CC=CC(C)=CC(C)C(=O)C(C)C(O)C(C)CC(C)=CC(=O)NCCNC(=O)OC(C)(C)C (stereo not drawn) [Compound 6]	1.3 nM	1.1 nM	34 nM	0.32 nM	2.3 nM	1.2 nM	–	–
CCC(C=CC1OC(=O)C=CC1C)=CC(C)CC=CC(C)=CC(C)C(=O)C(C)C(O)C(C)CC(C)=CC(=O)NCCCCCNC(=O)COc1ccc(C2=NC(=Cc3ccc(-c4cccs4)n3B(F)F)C=C2)cc1 (stereo not drawn) [Compound 20]	250 nM	–	1000 nM	210 nM	–	570 nM	87.4 nM	–
CCC(C=CC1OC(=O)C=CC1C)=CC(C)CC=CC(C)=CC(C)C(=O)C(C)C(O)C(C)CC(C)=CC(=O)NCCCN1CCOCC1 (stereo not drawn) [Compound 8]	0.84 nM	0.98 nM	39 nM	0.3 nM	2.1 nM	2.5 nM	0.5 nM	Mouse MTD [1]: 20 mg/kg; IC50 (MB 49 cells): 6.8 nM; IC50 (K562 cells): 1 nM
CCC(C=CC1OC(=O)C=CC1C)=CC(C)CC=CC(C)=CC(C)C(=O)C(C)C(O)C(C)CC(C)=CC(=O)NCCN (stereo not drawn) [Compound 15]	15 nM	17 nM	630 nM	4.6 nM	110 nM	41 nM	4.2 nM	–
CCC(C=CC1OC(=O)C=CC1C)=CC(C)CC=CC(C)=CC(C)C(=O)C(C)C(O)C(C)CC(C)=CC(=O)NCCNC(=O)CCC1=NC(=Cc2c(C)cc(C)n2B(F)F)C=C1 (stereo not drawn) [Compound 19]	4.6 nM	–	300 nM	3.4 nM	–	20 nM	1.6 nM	–
CCC(=C/[C@H](C)C/C=C/C(C)=C/[C@@H](C)C(=O)[C@@H](C)[C@H](O)[C@@H](C)C/C(C)=C/C(=O)NCCCCCCNC(=O)CCCC[C@H]1SC[C@@H]2NC(=O)N[C@@H]21)/C=C/[C@@H]1OC(=O)C=C[C@@H]1C [biotinylated LMB]	–	–	–	–	–	–	–	activity of LMB analog [2]: active
CCC(C=CC1OC(=O)C=CC1C)=CC(C)CC=CC(C)=CC(C)C(=O)C(C)C(O)C(C)CC(C)=CC(=O)NCCOc1ccccc1 (stereo not drawn) [Compound 9]	2.8 nM	1.9 nM	37 nM	0.64 nM	2.5 nM	4.3 nM	–	–
CCC(C=CC1OC(=O)C=CC1C)=CC(C)CC=CC(C)=CC(C)C(=O)C(C)C(O)C(C)CC(C)=CC(=O)NCCc1cccnc1 (stereo not drawn) [Compound 4]	0.84 nM	1 nM	19 nM	0.32 nM	1.4 nM	2.8 nM	0.5 nM	Mouse MTD [1]: 40 mg/kg; IC50 (MB 49 cells): 5.9 nM; IC50 (K562 cells): 1.7 nM
CCC(C=CC1OC(=O)C=CC1C)=CC(C)CC=CC(C)=CC(C)C(=O)C(C)C(O)C(C)CC(C)=CC(=O)NCCN(C)C (stereo not drawn) [Compound 7]	2.2 nM	1.4 nM	110 nM	0.61 nM	3.1 nM	2.8 nM	0.7 nM	Mouse MTD [1]: 15 mg/kg
CCC(C=CC1OC(=O)C=CC1C)=CC(C)CC=CC(C)=CC(C)C(=O)C(C)C(O)C(C)CC(C)=CC(=O)NCCC1OCCO1 (stereo not drawn) [Compound 11]	0.67 nM	0.43 nM	5.8 nM	0.3 nM	0.47 nM	1.5 nM	–	–
CCC(C=CC1OC(=O)C=CC1C)=CC(C)CC=CC(C)=CC(C)C(=O)C(C)C(O)C(C)CC(C)=CC(=O)NCC(=O)O (stereo not drawn) [Compound 21]	37 nM	–	260 nM	31 nM	–	57 nM	28.6 nM	–
CCC(=C/[C@H](C)C/C=C/C(C)=C/[C@@H](C)C(=O)[C@@H](C)[C@H](O)[C@@H](C)C/C(C)=C/C(=O)O)/C=C/[C@@H]1OC(=O)C=C[C@@H]1C [LMB, Leptomycin B, reference compound]	0.3 nM	0.65 nM	–	–	0.41 nM	–	–	cytotoxicity towards mammalian cells (mammalian cells): remarkable cytotoxicity; Mouse MTD [1]: 2.5 mg/kg; IC50 (MB 49 cells; Mus musculus, MB49): 1.8 nM; IC50 (NCI/ADR; Homo sapiens, NCI/ADR-RES): 1 nM; IC50 (MCF-7; MCF7): 0.29 nM; EC50 (UMUC-3): 0.33 nM; IC50 (K562 cells; Homo sapiens): 0.6 nM; IC50 (SKOV-3; SK-OV-3): 1.5 nM; toxicity in phase 1 trial [3]: extreme toxicity; EC50 (T24): 1.2 nM; IC50 (LNCaP; Homo sapiens): 0.3 nM
